Article PMC10002220, “In Vivo Reversal of P-Glycoprotein-Mediated Drug Resistance in a Breast Cancer Xenograft and in Leukemia Models Using a Novel, Potent, and Nontoxic Epicatechin EC31” (International Journal of Molecular Sciences, 2023)

How the values were obtained:
LCC6 cells = assay: Drug resistance level: IC50 of anticancer drugs in LCC6; format: cell-based; conditions: Homo sapiens, LCC-6, 72 h; 3 days incubation
Description: (§1) In the Western blot membrane, the total P-gp and β-actin expression in each lane was quantified with ImageJ software. The relative P-gp expression was an intensity ratio of P-gp band relative to the β-actin band. The relative P-gp expression of the resistant cell line relative to its respective wild type was presented as a bar chart. The plasma membrane P-gp levels of LCC6MDR and K562/P-gp relative to their wild types were determined through flow cytometry using antihuman P-gp-PE antibodies. (B) LCC6MDR and LCC6. (C) K562/P-gp and K562. (D) the drug resistance levels of three P-gp-overexpressing cell lines and their wild types were studied. The 3 pairs of cell lines were incubated with anticancer drugs paclitaxel (PTX), doxorubicin (DOX), and vincristine (VCR) for 3 days, and the % of cell survival was then determined. Their IC50 (nM) values were calculated using Prism 5.0. RF (relative fold) was a ratio of IC50 of anticancer drugs in a P-gp-overexpressing cell line relative to its respective wild type. N = 3 independent experiments. […] All cell lines were counterstained with DAPI. (E) LCC6 and LCC6MDR, (F) P388 and P338ADR, and (G) K562 and K562/P-gp. Bar = 8 µm. / = not determined.

LCC6MDR cells = assay: Drug resistance level: IC50 of anticancer drugs in LCC6MDR; format: cell-based, human
Description: as §1

P388 cells = assay: Drug resistance level: IC50 of anticancer drugs in P388; format: cell-based; conditions: Mus musculus, P388, 72 h; 3 days incubation
Description: as §1

P388ADR cells = assay: Drug resistance level: IC50 of anticancer drugs in P388ADR; format: cell-based, mouse
Description: as §1

K562 cells = assay: Drug resistance level: IC50 of anticancer drugs in K562; format: cell-based; conditions: Homo sapiens, K562, 72 h; 3 days incubation
Description: as §1

K562/P-gp cells = assay: Drug resistance level: IC50 of anticancer drugs in K562/P-gp; format: cell-based, human
Description: as §1

P388ADR leukemia = assay: In vivo efficacy in reversing DOX resistance in murine leukemia P388ADR model; set-up: species or system B6D2F1 mice; conditions: DOX 3 mg/kg i.p. alone
Description: (§2) Irradiated BDF1 mice were i.p. inoculated with P388ADR cells, which caused mouse leukemia. Irradiated NOD/SCID mice were i.v. inoculated with K562/P-gp cells, which caused human leukemia. The mice were randomized and treated with (1) control treatment (no treatment), (2) DOX alone, and (3) EC31 + DOX. Treatments were given as indicated by the arrows. The number of mice deaths in each treatment group was recorded every day. (A) The percent survival of mice infected with P388ADR. (B) The percent survival of mice infected with K562/P-gp. The mice median survival days and the increased lifespan (ILS) were analyzed with Log-rank (Mantel–COX) test in Prism 5.0. Student’s paired t test was conducted as indicated. ** represents p < 0.01, and *** represents p < 0.001. N.S. = not significant.
About 1 × 10^6 cells of P388ADR were i.p. inoculated in male B6D2F1 mice aged 5–7 weeks old. There were 3 groups: (1) control group with no treatment, (2) DOX (3 mg/kg i.p.) alone, and (3) cotreatment with EC31 (60 mg/kg i.p.) being injected 1 h prior to DOX (3 mg/kg i.p.) administration. In group 2, DOX was i.p. injected on days 2, 6, 10, 14, and 18 only. In group 3, EC31 was i.p. injected on days 1, 2, 5, 6, 9, 10, 13, 14, 17, and 18, and DOX was i.p. injected on days 2, 6, 10, 14, and 18. Before each treatment, 1.5 mg/mL of DOX was freshly prepared using PBS. Mice survival and body weight were monitored during the study period.

K562/P-gp leukemia = assay: In vivo efficacy in reversing DOX resistance in human leukemia K562/P-gp model; set-up: species or system NOD/SCID mice
Description: as §2
The mice were randomly distributed into 3 groups: (1) control group (no treatment), (2) DOX (0.9 mg/kg i.v.) alone, and (3) cotreatment with EC31 (30 mg/kg i.p.) being injected 1 h prior to DOX (0.9 mg/kg i.v.) administration. EC31 and DOX were injected on days 7, 11, 19, 23, and 27. Before each treatment, 0.2 mg/mL of DOX was freshly prepared using PBS. Mice survival and body weight were monitored during the study period.

## COc1cccc2c1C(=O)c1c(O)c3c(c(O)c1C2=O)C[C@@](O)(C(=O)CO)C[C@@H]3O[C@H]1C[C@H](N)[C@H](O)[C@H](C)O1 [DOX, doxorubicin]
LCC6 cells
  IC50: 800 ± 100 nM
LCC6MDR cells; Homo sapiens, LCC6MDR, 72 h, 3 days incubation
  IC50: 10300 nM
LCC6MDR cells; IC50 in LCC6MDR relative to LCC6
  RF (relative fold): 12.9
P388 cells
  IC50: 50 ± 1.8 nM
P388ADR cells; IC50 in P388ADR relative to P388
  RF (relative fold): 35.8
P388ADR cells; Mus musculus, P388/ADR, 72 h, 3 days incubation
  IC50: 1790 ± 139 nM
K562 cells
  IC50: 312 ± 41.6 nM
K562/P-gp cells; Homo sapiens, K562, 72 h, 3 days incubation
  IC50: 1930 ± 126 nM
K562/P-gp cells; IC50 in K562/P-gp relative to K562
  RF (relative fold): 6.2
P388ADR leukemia
  median survival: 16.5 days
K562/P-gp leukemia; DOX 0.9 mg/kg i.v. alone
  median survival time: 32.0 days
K562/P-gp leukemia; DOX alone compared to untreated
  ILS% (increase in lifespan): 10.3%
